Measurements published in publication PMC12257394, “Design, Synthesis, and Biological Evaluation of Ferrocenyl–Cyclo-(Gly‑L‑Pro) Hybrids Sensitizing Multidrug-Resistant Cancer Cells to Anticancer Agents” (ACS Medicinal Chemistry Letters, 2025).

Experiments:
Format in all cases: cell-based, human
[1] = test system: ABCC1-overexpressing SW620M cells; test: MDR reversal assay (ERP), SW620M; settings: for ERP value, methotrexate + compound: SW620M (xlsx); for ERP = IC50(drug)MDR/IC50(drug+4)MDR: methotrexate, SW620M
Excerpt: (§1) We investigated the potency of 4a–e to inhibit ABC transporters (ABCB1, ABCC1, and ABCG2) by determining their enhancement of reversal potency (ERP) values. ERP represents fold changes in the IC50 values of anticancer drugs in multidrug-resistant cancer sublines (ABCB1-overexpressing SW620D, SW620E, and SW620V; ABCC1-overexpressing SW620M; ABCG2-overexpressing SW620C and SW620Mito) exposed to a combination of the investigated compounds and anticancer agents at equimolar concentrations, compared with values obtained with drugs alone (Tables S2 and S3 and Figure ).
(§2) Standards. Multidrug-resistant variants of SW620 cells were developed in our laboratory as described previously.10, 11 All cells were cultured under standard conditions (37°C, 5% CO2, 100% humidity) in high-glucose DMEM supplemented with GlutaMaxTM, HEPES (ThermoFisher Scientific, USA), and 10% fetal bovine serum (EURx, Poland). Cells were routinely tested for potential Mycoplasma contamination using the MycoProbe Mycoplasma Detection kit (R&D System, USA).
(§3) In total, 104 cells in 100 µL of complete medium were plated per well of a 96-well plate and left overnight to allow cells to adhere to the surface. Then, the cells were exposed to a desired concentration of tested compound(s). Stock solutions were prepared in DMSO and used immediately. The final DMSO concentration was constant and nontoxic (0.1% v/v). After 70-h incubation, neutral red was added to the final concentration of 1 mM. After another 2 h, the medium was aspirated, and cells were washed twice with PBS. Dye was released using 100 µL of a solubilizer (1% acetic acid in 50% ethanol) on an orbital shaker (10 min). Absorbance was read at 540 nm using EnVision Multilabel Plate Reader (Perkin Elmer, USA). Results were expressed as % of control. The IC50 parameters were calculated using GraphPad Prism version 10 (GraphPad Software, Boston, Massachusetts USA).
(§4) The enhancement of reversal potency (ERP) value determination
(§5) For MDR reversal assays, cytotoxic agents were co-administered with compounds 4a–4e at equimolar concentrations in a range of 10 nM to 100 µM. IC₅₀ values were determined in ABCB1-overexpressing SW620 cell line variants. The enhancement of reversal potency (ERP) was calculated using the following formula: ERP = IC₅₀(drug)MDR / IC₅₀(drug + compound)MDR. All experiments were performed in triplicate (n = 3).

[2] = test system: SW620Mito cells (mitoxantrone-resistant); test: Neutral red uptake viability assay, SW620Mito; settings: 72 h; for survival rate: n = 3, ± SD; for IC50: n = 3, read-out: Cytotoxic activity IC50 (95% CI)
Description: (§6) In general, compounds 4a–e exerted little or no cytotoxic effect on either SW620 or multidrug-resistant sublines even at 10 μM, with the remarkable exception of SW620C (cisplatin-selected variant of SW620) cells, which turned out to be relatively susceptible toward ferrocenyl 4a–c. […] This trend may reflect steric or electronic contributions to cellular uptake or interaction with intracellular targets. […] However, since E/Z isomeric data are currently available only for compound 4c, this hypothesis requires validation. To quantify this effect, IC50 values were determined (Table ). […]
(§7) The normal lung fibroblast MRC-5 and colorectal adenocarcinoma SW620 cell lines used in this experiment were purchased from American Type Culture Collection (USA) via LGC […]
as §2
as §3, with “Massachusetts USA). […]” for “Massachusetts USA).”
(§8) All experiments were performed in triplicate (n = 3).

SW620Mito cells = test: Synergy determination (Bliss model, SynergyFinder), SW620Mito; settings: drug mitoxantrone + additive, SW602Mito; for synergy score: Bliss model
Excerpt: In an ideal setting, the effect of cell exposure to a combination of a chemotherapeutic and an MDR inhibitor should be synergistic. […] The highest synergy scores identified an optimal concentration range where the combination exerted its maximal effect. […] In cisplatin-resistant SW620C cells, the low or lack of synergy observed for most compounds may be due to the additive effects of cisplatin and 4 rather than a true synergistic interaction. […]
To evaluate the potential interactions between putative ABC inhibitors and anticancer drugs, we utilized the Bliss independence model, as implemented in the SynergyFinder web application.13, 14 Synergy scores and the most synergistic area scores were calculated based on the normalized dose–response matrices. A synergy score below −10 indicates likely […]
above 10 is indicative of likely synergistic interactions.
All experiments were performed at least three times, and the data were statistically analyzed

[3] = test system: ABCB1-overexpressing SW620V cells; test: MDR reversal assay (ERP), SW620V; settings: for ERP value, vincristine + compound: SW620V (xlsx); for ERP = IC50(drug)MDR/IC50(drug+4)MDR: vincristine, SW620V
Excerpt: as §1, §2, §3, §4, §5

SW620 cells = test: Neutral red uptake viability assay, SW620; settings: for survival rate: 72 h, n = 3, ± SD; for IC50: SW620, 72 h, n = 3, read-out: Cytotoxic activity IC50 (95% CI)
Description: as §6, with “To evaluate this aspect, we investigated the viability of SW620 colon cancer cells and their multidrug-resistant variants (overexpressing ABCB1, ABCC1, and ABCG2) exposed to 1 and 10 μM 4a–e using a neutral red uptake assay (Table ). In” for “In”
as §7, §2
as §3, with “Massachusetts USA). […]” for “Massachusetts USA).”
as §8

MRC-5 fibroblasts = test: Neutral red uptake viability assay, MRC-5; settings: for survival rate: MRC-5, 10 μM, 72 h exposure, n = 3, ± SD; for Surviwal rate of MRC-5 at 10 microM: MRC-5, 10 microM (xlsx)
Description: as §7, §2
as §3, with “Massachusetts USA). […]” for “Massachusetts USA).”
as §8

[4] = test system: ABCB1-overexpressing SW620E cells; test: MDR reversal assay (ERP), SW620E; settings: for ERP value, etoposide + compound: SW620E (xlsx); for ERP = IC50(drug)MDR/IC50(drug+4)MDR: etoposide, SW620E
Excerpt: as §1, §2, §3, §4, §5

[5] = test system: SW620E cells (etoposide-resistant); test: Neutral red uptake viability assay, SW620E; settings: 72 h; for survival rate: n = 3, ± SD; for IC50: n = 3, read-out: Cytotoxic activity IC50 (95% CI)
Description: as §6, with “To evaluate this aspect, we investigated the viability of SW620 colon cancer cells and their multidrug-resistant variants (overexpressing ABCB1, ABCC1, and ABCG2) exposed to 1 and 10 μM 4a–e using a neutral red uptake assay (Table ). In” for “In”
as §7, §2
as §3, with “Massachusetts USA). […]” for “Massachusetts USA).”
as §8

| Structure (SMILES) | ERP value, methotrexate + compound [1] | ERP = IC50(drug)MDR/IC50(drug+4)MDR [1] | survival rate ([2]; 1 μM) [%] | survival rate ([2]; 10 μM) [%] | IC50 [2] [µM] | most synergistic area score (SW620Mito cells) | synergy score (SW620Mito cells) | ERP value, vincristine + compound [3] | ERP = IC50(drug)MDR/IC50(drug+4)MDR [3] | survival rate (SW620 cells; SW620, 1 μM) [%] | survival rate (SW620 cells; SW620, 10 μM) [%] | IC50 (SW620 cells) [µM] | survival rate (MRC-5 fibroblasts) [%] | ERP value, etoposide + compound [4] | ERP = IC50(drug)MDR/IC50(drug+4)MDR [4] | survival rate ([5]; 1 μM) [%] | survival rate ([5]; 10 μM) [%] | IC50 [5] [µM] | Surviwal rate of MRC-5 at 10 microM (MRC-5 fibroblasts) |
| --- | --- | --- | --- | --- | --- | --- | --- | --- | --- | --- | --- | --- | --- | --- | --- | --- | --- | --- | --- |
| O=C1N/C(=C\[c-]2cccc2)C(=O)N2CCC[C@@H]12.[Fe+2].c1cc[cH-]c1 [(S,Z)-4a] | 1.17 | 1.17 | 98 ± 2.0 | 90 ± 3.1 | > 100 | 16.82 | 7.86 | 6.00 | 6.00 | 95 ± 2.2 | 88 ± 6.0 | > 100 | 106 ± 13 | 5.61 | 5.61 | 93 ± 0.8 | 94 ± 3.0 | > 100 | – |
| O=C1N/C(=C/c2ccccc2)C(=O)N2CCC[C@@H]12 [(S,E)-4e] | 1.08 | 1.08 | 94 ± 0.7 | 96 ± 0.8 | – | 4.35 | –0.12 | 1.34 | 1.37 | 96 ± 3.4 | 96 ± 2.2 | – | 117 ± 11 | 0.88 | 0.88 | 96 ± 2.5 | 99 ± 0.9 | – | 117_11 |
| O=C1N/C(=C/c2cccc(-[c-]3cccc3)c2)C(=O)N2CCC[C@@H]12.[Fe+2].c1cc[cH-]c1 [(S,E)-4c] | 1.16 | 1.16 | 94 ± 3.5 | 94 ± 1.1 | > 100 | 0.67 | –4.74 | 0.81 | 0.81 | 95 ± 3.4 | 95 ± 6.0 | > 100 | 110 ± 10 | 0.87 | 0.87 | 95 ± 2.1 | 91 ± 0.8 | > 100 | – |
| O=C1N/C(=C\c2ccccc2-[c-]2cccc2)C(=O)N2CCC[C@@H]12.[Fe+2].c1cc[cH-]c1 [(S,Z)-4b] | 1.84 | 1.84 | 85 ± 1.0 | 85 ± 1.9 | 44.9 | 19.63 | 11.11 | 9.57 | 9.57 | 91 ± 8.0 | 84 ± 13 | > 100 | 92 ± 8.7 | 2.22 | 2.22 | 93 ± 1.2 | 99 ± 0.8 | > 100 | – |
| O=C1N/C(=C\c2ccccc2)C(=O)N2CCC[C@@H]12 [(S,Z)-4e] | 1.28 | 1.28 | 92 ± 1.3 | 94 ± 1.8 | – | 0.00 | –3.17 | 1.27 | 1.27 | 94 ± 5.4 | 92 ± 5.0 | – | 102 ± 6 | 0.88 | 0.88 | 94 ± 1.9 | 96 ± 4.4 | – | 102_6 |
| O=C1N/C(=C\c2ccc(-[c-]3cccc3)cc2)C(=O)N2CCC[C@@H]12.[Fe+2].c1cc[cH-]c1 [(S,Z)-4d] | 0.84 | 0.84 | 98 ± 0.9 | 93 ± 1.1 | > 100 | 27.66 | 17.05 | 12.7 | 12.7 | 97 ± 3.0 | 97 ± 2.1 | > 100 | 101 ± 7 | 5.84 | 5.84 | 97 ± 0.8 | 94 ± 2.5 | > 100 | – |
